According to PMC4475474 (Journal of biomolecular screening, 2015):
Like-named read-outs stand apart in the source and are kept apart here.

Biological target: Full-length human SAMHD1 (Homo sapiens, UniProt Q9Y3Z3)
Test: Enzyme-coupled malachite green
Assay type: biochemical
Settings: for Hill slope h: variable Hill slope fit (eq 2); for SAMHD1 inhibition (in words): MG assay dose-response curves

Chain of Full-length human SAMHD1 (Q9Y3Z3 whole entry): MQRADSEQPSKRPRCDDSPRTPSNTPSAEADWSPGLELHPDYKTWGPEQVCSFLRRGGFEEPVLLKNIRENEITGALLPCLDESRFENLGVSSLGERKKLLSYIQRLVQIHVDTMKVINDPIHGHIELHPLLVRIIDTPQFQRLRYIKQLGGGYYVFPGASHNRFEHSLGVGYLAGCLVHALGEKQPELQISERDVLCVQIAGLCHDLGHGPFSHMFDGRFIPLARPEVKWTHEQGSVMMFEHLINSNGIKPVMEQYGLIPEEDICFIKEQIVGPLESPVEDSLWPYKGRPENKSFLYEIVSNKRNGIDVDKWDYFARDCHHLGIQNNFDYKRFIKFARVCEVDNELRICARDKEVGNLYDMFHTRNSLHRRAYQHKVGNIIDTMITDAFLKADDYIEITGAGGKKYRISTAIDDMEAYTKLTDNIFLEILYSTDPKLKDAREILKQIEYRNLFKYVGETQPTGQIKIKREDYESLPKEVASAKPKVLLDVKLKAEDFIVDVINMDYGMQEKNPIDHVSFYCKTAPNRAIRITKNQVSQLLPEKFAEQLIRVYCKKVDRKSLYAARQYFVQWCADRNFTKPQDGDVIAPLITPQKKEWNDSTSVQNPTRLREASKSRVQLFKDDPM

Structure (SMILES)	SAMHD1 inhibition (in words)	also measured
CC(=O)OCC1=C(C(=O)O)N2C(=O)[C@@H](NC(=O)CCC[C@@H](N)C(=O)O)[C@H]2SC1 [CC-Zn, cephalosporin C]	–	Hill slope h (MG assay dose-response): 1.4 ± 0.1; fold more potent inhibitor (Zn2+ salt vs sodium salt of Ceph C) (ratio of IC50 values of the two salt forms): 200 fold
[Cl-].[Cl-].[Zn+2] [Zn^2+]	–	Hill slope h (MG assay dose-response): 1.2 ± 0.1; IC50 (MG assay dose-response, 0.5 μM SAMHD1, 5 μM PPase, 0.1 mM dGTP, 5 mM MgCl2): 2.1 ± 0.2 µM; inhibition after addition of EDTA (approximately stoichiometric amounts of EDTA added): completely rescued
Nc1nc2c(ncn2[C@H]2C[C@H](O)[C@@H](CO)O2)c(=O)[nH]1 [dGuo, deoxyguanosine]	significant inhibition	IC50: 488 ± 50 µM
Nc1nc2c(ncn2[C@H]2CC[C@@H](CO)O2)c(=O)[nH]1 [ddGuo]	significantly weaker inhibition	–
O=c1ccn([C@H]2C[C@H](O)[C@@H](CO)O2)c(=O)[nH]1 [dUrd, deoxyuridine]	only dGuo showed significant inhibition	–
O=c1[nH]cnc2c1ncn2[C@H]1C[C@H](O)[C@@H](CO)O1 [dIno]	significantly less inhibitory	–
Nc1ccn([C@H]2C[C@H](O)[C@@H](CO)O2)c(=O)n1 [dCyt, deoxycytosine]	only dGuo showed significant inhibition	–
Cc1cn([C@H]2C[C@H](O)[C@@H](CO)O2)c(=O)[nH]c1=O [dThy, deoxythymidine]	only dGuo showed significant inhibition	–
Nc1nc2c(ncn2[C@@H]2O[C@H](CO)[C@@H](O)[C@H]2O)c(=O)[nH]1 [rGuo]	significantly weaker inhibition	–
CC(=O)OCC1=C(C(=O)O)N2C(=O)[C@@H](NC(=O)CCC[C@@H](N)C(=O)O)[C@H]2SC1 [Ceph C, cephalosporin C]	weakly inhibitory	–
Nc1ncnc2c1ncn2[C@H]1C[C@H](O)[C@@H](CO)O1 [dAdo, deoxyadenosine]	only dGuo showed significant inhibition	–
